Laboratory results published in US9464291B2, “Methods and compositions for the treatment of cancer” (University of South Alabama, priority 2012, dated 2016).
Entries after “also recorded” stand apart in the source; their conditions may differ.

How the values were obtained:
RAW264.7 cells = assay: Osteoclast resorption activity, OAAS plates; format: cell-based, murine; details: DM supplemented with SHH (100 nM) or OPN (100 ng/ml)
Method: Osteoclast differentiation and activity assays—Tartarate-resistant acid phosphatase (TRAP) assay was conducted for RAW 264.7 following the manufacturer's protocol (Sigma, St. Louis, Mo.). This assay was indicative of the extent of differentiation. OAAS plates (Osteogenic Core Technologies, Choongnam, Republic of Korea) were utilized to measure osteoclastic activity. RAW 264.7 cells (25×103) were inoculated in 48-well plates. Cells were treated with serum-free conditioned media from breast cancer cells or 100 nM SHH or 100 ng/ml OPN on the following day. Media was changed every two days and the experiments were terminated either on day 6 (day 7 for knockdown experiments, with transfections being done on the sixth day). At the completion, cells were detached with 5% sodium hypochlorite and the wells were observed under a Nikon Eclipse TS 100 microscope at 10× magnification. […] The percentage of area resorbed was calculated using the NIS-Elements BR. 3.1 software.

[1] = test system: c-jun (Ser 63, Ser 73, Thr 91, Thr 93); assay: c-jun protein phosphorylation, Western blot, A2780-CP70 cells; format: cell-based, human; details: 72 hr observation
Method: Protein levels for c-jun, c-fos, phosphorylated c-jun (Ser 63), phosphorylated c-jun (Ser 73), and phosphorylated c-jun (Thr 91, Thr 93) were tested in cytosolic, nuclear, and whole cell fractions at 0 hr, 6 hr, 24 hr, 48 hr, and 72 hr. Internal controls for cytosolic and nuclear fractions included α-tubulin and histone deacetylase 3.
Phosphorylation of c-jun in A2780-CP70 cells transfected with anti-GLI1 shRNA construct was assessed using Western blot analysis. Protein levels for c-jun, phosphorylated c-jun (Ser 63), phosphorylated c-jun (Ser 73), and phosphorylated c-jun (Thr 91, Thr 93) were examined at 0 hr, 6 hr, 24 hr, 48 hr, and 72 hr.
A2780-CP70 cells were treated with an IC50 dose of cisplatin and an IC50 dose of anti-Gli1 shRNA.

Molecule | osteoclast activity (area resorbed) (RAW264.7 cells) | c-jun phosphorylation at Ser63 [1] | c-jun phosphorylation at Thr91/93 [1]
SHH: recombinant Sonic hedgehog ligand (R & D Systems) | notably enhances (p<0.001) osteoclast activity | – | –
CC1=C2C[C@H]3[C@@H](CC=C4C[C@@H](O)CC[C@@]43C)[C@@H]2CC[C@]12O[C@@H]1C[C@H](C)CN[C@H]1[C@H]2C [cyclopamine] | – | no phosphorylation occurred at Ser63; also recorded: no substantial expression was detected; also recorded: not observed | peak levels at 6 hr
